These results are taken from PubChem BioAssay (NCI).

Test systems include OVCAR-5 ovarian; BT-549 breast; SF-295 CNS; HS 578T breast; HCT-116 colon; EKVX NSCLC; KM20L2 colon; DMS 273 small cell lung; M19-MEL melanoma; HOP-18 NSCLC; SNB-78 CNS.
Holding throughout (assay): inhibition of tumour cell growth, NCI panel, 48 h

Several values for one entry are separate records, joined by “and”; a condition that tells them apart may be missing. Equal entries are not always repeated.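 Five concentrations, 48 hours, 96-well plates. GI50: concentration for 50% inhibition of growth. TGI: concentration producing complete growth inhibition.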 Where only a bound is given, the exact number is not on record here.

With `CCn1c(=O)c2c3ccc(O)cc3[nH]c2c2ccc(O)cc21`, the TGI with OVCAR-5 ovarian, in the test with BT-549 breast, with SF-295 CNS, in the test on HS 578T breast, in the test on HCT-116 colon and in the test on EKVX NSCLC was more than 100 µM each time.

As for `O=C(N/N=C/c1cc(Cl)cc(Cl)c1[O-])c1ccccc1O.O=C(N/N=C/c1cc(Cl)cc(Cl)c1[O-])c1ccccc1O.[Fe+2]`, the figures for the GI50 with KM20L2 colon, with HCT-116 colon and in the test with EKVX NSCLC were 14.1 µM, 11.4 µM and 18.1 µM, respectively. The TGI with KM20L2 colon worked out at 27.9 µM; in the test on SF-295 CNS, 33.9 µM; with HCT-116 colon, 72.7 µM; with EKVX NSCLC, 41.9 µM.

Turning to `O=c1[nH]c(Br)nc2n[nH]nc12`, the TGI with OVCAR-5 ovarian, in the test with BT-549 breast, in the test on SF-295 CNS, in the test with HS 578T breast, in the test with HCT-116 colon and with EKVX NSCLC was more than 100 µM throughout.

On to `CC(=O)OC1(C)CC(C)C(=O)C(C(O)CC2CC(=O)NC(=O)C2)C1` (configuration not stated), for which the TGI in the test on OVCAR-5 ovarian is 0.293 µM and 2.4 µM; in the test on SF-295 CNS, 0.03 µM; in the test with EKVX NSCLC it was 0.37 µM and 0.631 µM. For the same molecule, the GI50 in the test with BT-549 breast was 0.0148 µM.

Take `O=[N+]([O-])c1cc(C(F)(F)F)cc2c1SC1=Nc3ccccc3CN12`: the TGI in the test on OVCAR-5 ovarian, in the test on DMS 273 small cell lung, in the test on M19-MEL melanoma, in the test on KM20L2 colon, in the test on SF-295 CNS and in the test with HOP-18 NSCLC was more than 100 µM throughout. Also, the TGI in the test on HCT-116 colon, in the test with SNB-78 CNS and in the test with EKVX NSCLC was more than 100 µM throughout.

As for `C[N+]1(C)C/C(=C\C=C\c2ccccc2)C(=O)/C(=C/C=C/c2ccccc2)C1`, the TGI with OVCAR-5 ovarian is 54.7 µM; in the test with BT-549 breast, 8.39 µM; in the test with M19-MEL melanoma it was 31.7 µM; with KM20L2 colon it was 33.1 µM; in the test on SF-295 CNS it was 81.7 µM; in the test with HOP-18 NSCLC, more than 61.1 µM. Also, the TGI is more than 61.4 µM in the test with HS 578T breast, 28.9 µM with HCT-116 colon, more than 100 µM in the test with SNB-78 CNS and more than 87.4 µM with EKVX NSCLC.

Consider `CC(=O)C(C(=O)C(=O)Nc1cc(Cl)c(Cl)cc1Cl)c1csc(N)n1` (configuration not stated), for which the TGI in the test on OVCAR-5 ovarian, with DMS 273 small cell lung, with M19-MEL melanoma, with KM20L2 colon, in the test on SF-295 CNS and with HCT-116 colon was more than 100 µM throughout. Besides, the TGI with SNB-78 CNS and in the test with EKVX NSCLC was more than 100 µM each time.

As for `NCCNc1ccc(NCCN)c2c1C(=O)c1c(O)ccc(O)c1C2=O`, the GI50 in the test with OVCAR-5 ovarian was 0.364 µM; in the test on M19-MEL melanoma it was 0.104 µM; in the test with KM20L2 colon, 0.251 µM; in the test on SF-295 CNS, less than 0.0131 µM; in the test on HOP-18 NSCLC, 0.0263 µM; with HS 578T breast, 0.225 µM. For the same molecule, the GI50 in the test on HCT-116 colon was 0.0343 µM; with EKVX NSCLC, 0.112 µM. Also, the TGI in the test with OVCAR-5 ovarian was 1.5 µM and 3.18 µM; in the test on BT-549 breast, 2.18 µM; in the test on M19-MEL melanoma it was 1.04 µM and 1.17 µM; with KM20L2 colon it was 1.5 µM and 1.53 µM; in the test with SF-295 CNS, 0.414 µM and 0.0618 µM; with HOP-18 NSCLC, 3.82 µM and 0.77 µM. The TGI in the test with HS 578T breast is 0.851 µM and 0.902 µM; in the test on HCT-116 colon it was 0.52 µM and 0.446 µM; with EKVX NSCLC, 1.3 µM and 0.435 µM.

For `NCCCC(N)(C(=O)O)C(F)F` (configuration not stated), the TGI was more than 4800 µM in the test with OVCAR-5 ovarian; more than 5000 µM in the test with DMS 273 small cell lung; more than 5000 µM with M19-MEL melanoma; more than 5000 µM in the test with KM20L2 colon; more than 5000 µM in the test with SF-295 CNS; more than 50 µM with HOP-18 NSCLC. Moreover, the TGI with HCT-116 colon was more than 5000 µM; in the test on SNB-78 CNS, more than 5000 µM; with EKVX NSCLC, more than 1260 µM.

Take `O=C(N/N=C/c1cc(Cl)cc(Cl)c1[O-])c1ccccc1O.O=C(N/N=C/c1cc(Cl)cc(Cl)c1[O-])c1ccccc1O.[Cu+2]`: the TGI in the test on OVCAR-5 ovarian was 1.92 µM; in the test on KM20L2 colon, 2.28 µM; with SF-295 CNS it was 1.26 µM; with HCT-116 colon, 0.597 µM. Also, the GI50 was 0.909 µM with KM20L2 colon and 0.255 µM in the test with HCT-116 colon.

For `NC1C2C=CC(C2)C1C(=O)O` (configuration not stated), the TGI with OVCAR-5 ovarian, in the test with BT-549 breast, with SF-295 CNS, in the test with HS 578T breast, in the test with HCT-116 colon and in the test on EKVX NSCLC was more than 100 µM throughout.

As to `COc1cc2c(cc1OC)-c1cc3cc(OC)c(OC)cc3c(C)[n+]1CC2` (tested in a mixture with another compound), the TGI with OVCAR-5 ovarian, with BT-549 breast, in the test on SF-295 CNS, with HS 578T breast, with HCT-116 colon and with EKVX NSCLC was more than 100 µM each time.

In the case of `CCN(CC)CCCNC(=O)c1ccccc1Nc1c(Cl)cccc1Cl`, the TGI worked out at 24.3 µM in the test with OVCAR-5 ovarian; 31.1 µM in the test with DMS 273 small cell lung; 11 µM with M19-MEL melanoma; 5.58 µM in the test with KM20L2 colon; 23.6 µM in the test on HCT-116 colon; 31.7 µM in the test on SNB-78 CNS. The TGI in the test on EKVX NSCLC was 25 µM.

Regarding `Oc1ccccc1CNCc1ccccc1O`, the TGI in the test with OVCAR-5 ovarian, with BT-549 breast, with SF-295 CNS, in the test on HS 578T breast, with HCT-116 colon and in the test with EKVX NSCLC was more than 100 µM in each case.

`Nc1n[nH]c(N)n1`: the TGI in the test with OVCAR-5 ovarian is more than 9810 µM; in the test with DMS 273 small cell lung, 6450 µM; in the test on BT-549 breast, more than 10000 µM; with M19-MEL melanoma it was more than 10000 µM; with KM20L2 colon, more than 10000 µM; in the test on SF-295 CNS, 7800 µM. The TGI with HOP-18 NSCLC was more than 10000 µM; in the test on HS 578T breast, more than 10000 µM; in the test with HCT-116 colon, more than 10000 µM; in the test on SNB-78 CNS, more than 8560 µM; in the test with EKVX NSCLC it was more than 7740 µM.

With `O=C(N/N=C/c1cc(Cl)cc(Cl)c1[OH2+])c1ccncc1.O=S(=O)([O-])[O-].[Fe+2]`, the TGI turned out to be 49.8 µM in the test on OVCAR-5 ovarian; 36.3 µM with KM20L2 colon; 35.3 µM in the test with SF-295 CNS; 29.6 µM with HCT-116 colon; 29 µM in the test with EKVX NSCLC.

Consider `COc1cccc2c1C(=O)c1c(O)c3c(c(O)c1C2=O)CC(O)(C(C)=O)CC3OC1OC(COC(C)=O)C(OC(C)=O)C(OC(C)=O)C1OC(C)=O` (configuration not stated), for which the TGI is 96.6 µM in the test with OVCAR-5 ovarian; 62.8 µM in the test on SF-295 CNS; 64.8 µM with HS 578T breast; more than 100 µM with HCT-116 colon; 27.4 µM in the test with EKVX NSCLC.

On to `CCCCCC1CC(C(C)=O)CN1c1ccc(F)cc1` (configuration not stated), for which the TGI with OVCAR-5 ovarian was more than 100 µM; in the test with DMS 273 small cell lung it was more than 100 µM; in the test on M19-MEL melanoma, more than 100 µM; in the test on KM20L2 colon, more than 100 µM; in the test with SF-295 CNS, 63.3 µM; in the test with HOP-18 NSCLC it was 82.5 µM. Moreover, the TGI with HCT-116 colon, in the test on SNB-78 CNS and in the test on EKVX NSCLC was more than 100 µM throughout.
